We go through seven molecules from patent US12139508B2, “Steroid derivative regulators, method for preparing the same, and uses thereof” (JIANGSU HANSOH PHARMACEUTICAL GROUP CO., LTD., priority 2018, dated 2024).

pIC50: −log10 of the molar value. Where two headings read alike, the source gives them in different places.

Data set [1] addresses GABA-A receptor. Description: 35S-TBPS binding assay (GABAA receptor binding ability test). On the set-up: species or system Sprague-Dawley rat. Particulars: rat cerebral cortex cell membrane, 5 μM GABA, 2 nM 35S-TBPS; read-out: 35S-TBPS bindng test: IC50 on inhibiting the TBPS binding activity. In a few lines: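 Rat (male Sprague-Dawley) cortical membranes in PBS were preincubated 5 min at 25° C with compound (from 1 μM, 3-fold, 8 points, 1% DMSO), then 5 μM GABA 5 min, then 2 nM ^35S-TBPS for 20 h at 4° C. Filter-bound counts gave % inhibition against DMSO and 10 μM P026-2 controls; IC50 by 4-parameter fit.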

A short description of data set [2]: Pharmacokinetic assay in Balb/c mice (plasma and brain tissue). Format: in vivo. Conditions: mouse, po, 5 mg/kg p.o., male Balb/c mice; for AUC(0-t): read-out: Area under curve AUC0-t; for AUC(0-inf): read-out: Area under curve AUC0-∞; for half-life: read-out: Half-life t1/2 (converted); for MRT: read-out: Mean residence time MRT; for Tmax: read-out: Peak time tmax; for Cmax: read-out: Plasma concentration Cmax. On the procedure: Balb/c mice were used as test animals. The pharmacokinetic behavior in mice (plasma and brain tissue) of the compounds of Examples 2, 3, 5, 6, 9, 13, 59, 60, 61, 63, 71-74, 81, 103, 130, 134, 135, 137, 138, 140, 141, 143, 145 and 146 orally administered at a dose of 5 mg/kg was studied.
Each group had 24 male Balb/c mice. After an overnight fast, Balb/c mice were administered p.o. with the test compound at an administration dose of 5 mg/kg and an administration volume of 10 mL/kg.
0.2 ml of blood was taken from the heart before administration and at 0, 0.5, 1, 2, 4, 6, 8 and 24 hours after administration. The samples were stored in EDTA-K2 tubes, and centrifuged for 6 minutes at 4° C., 6000 rpm to separate the plasma. The plasma samples were stored at −80° C. The mice were sacrificed with CO2, and the whole brain tissue was taken out, weighed, placed in a 2 mL centrifuge tube and stored at −80° C.
1) 160 μL of acetonitrile was added to 40 μL of the plasma sample for precipitation, and then the mixture was centrifuged for 5-20 minutes at 3500×g.
2) 90 μL of acetonitrile containing the internal standard (100 ng/mL) was added to 30 μL of the plasma and brain homogenate samples for precipitation, and then the mixture was centrifuged for 8 minutes at 13000 rpm.
3) 70 μL of the treated supernatant was taken and added to 70 μL of water, and mixed by vortex for 10 minutes. 20 μL of the mixture was taken to analyze the concentration of the test compound by LC/MS/MS. LC/MS/MS analysis instrument: AB Sciex API 4000 Qtrap.
• Liquid chromatography condition: Shimadzu LC-20AD pump. • Chromatographic column: Agilent ZORBAX™ XDB-C18 (50×2.1 mm, 3.5 μm) (note: Aglient ZORBAX™ is a kind of column used in the reverse HPLC); • Mobile phase: Eluent A was 0.10% formic acid in water, and Eluent B was acetonitrile. • Flow rate: 0.4 mL/min • Elution time: 0-4.0 minutes, the eluent is as follows:
The main parameters of pharmacokinetics were calculated by WinNonlin 6.1.

By pIC50 is commonly meant the IC50 on a negative log10 scale, so that one unit is a factor of ten. By MRT is commonly meant a mean duration of stay, worked out from the concentration-time curve. By Tmax is commonly meant the time at which the peak concentration occurs.

For the molecule `CC[C@@H]1C[C@H](C(=O)Cn2ccc(C(F)(F)F)n2)[C@@]2(C)CC[C@H]3[C@@H](CC[C@@H]4C[C@](C)(O)CC[C@@H]43)[C@H]12` [Example 138, 1-((3R,5R,8R,9R,10S,13S,14S,15R,17S)-15-Ethyl-3-hydroxy-3,13-dimethylhexadecahydro-1H-cyclopenta[a]phenanthren-17-yl)-2-(3-(trifluoromethyl)-1H-pyrazol-1-yl)ethan-1-one], in data set [1], the pIC50 was 7.60. In data set [2] (brain tissue), the AUC(0-t) is 773 ng·h/mL, the AUC(0-inf) turned out to be 935 ng·h/mL, the half-life is 1.47 h and the MRT worked out at 2.38 h. Further, in data set [2] (brain tissue), the time of peak concentration (Tmax) came out at 0.5 h and the Cmax turned out to be 314 ng/mL. Also, in data set [2] (plasma), the AUC(0-t) was found to be 662 ng·h/mL, the AUC(0-inf) came out at 730 ng·h/mL, the half-life was 1.66 h and the MRT stood at 2.83 h. For the same molecule, in data set [2] (plasma), the Tmax is 0.5 h and the Cmax was found to be 432 ng/mL.

Consider `C[C@@H]1C[C@H](C(=O)Cn2cc(C(F)(F)F)cn2)[C@@]2(C)CC[C@H]3[C@@H](CC[C@@H]4C[C@](C)(O)CC[C@@H]43)[C@H]12` [Example 59, 1-((3R,5R,8R,9R,10S,13S,14S,15R,17S)-3-Hydroxy-3,13,15-trimethylhexadecahydro-1H-cyclopenta[a]phenanthren-17-yl)-2-(4-(trifluoromethyl)-1H-pyrazol-1-yl)ethan-1-one], for which the pIC50 in data set [1] was 8.21. Besides, in data set [2] (brain tissue), the AUC(0-t) amounted to 2640 ng·h/mL, the AUC(0-inf) came to 2680 ng·h/mL, the half-life was 3.18 h and the mean residence time (MRT) stood at 4.81 h. In data set [2] (brain tissue), the time to peak (Tmax) turned out to be 1 h and the Cmax was determined as 678 ng/mL. For the same molecule, in data set [2] (plasma), the AUC(0-t) came to 1300 ng·h/mL, the AUC(0-inf) is 1320 ng·h/mL, the half-life was 2.99 h and the MRT was 4.15 h. In addition, in data set [2] (plasma), the time of peak concentration (Tmax) was determined as 0.5 h and the Cmax was found to be 554 ng/mL.

Consider `C[C@@]1(O)CC[C@H]2[C@H](CC[C@@H]3[C@@H]2CC[C@@]2(C)[C@H]3[C@@H]3C[C@@H]3[C@@H]2C(=O)Cn2ncnn2)C1` [Example 9, 1-((2R,4aS,4bR,6aS,7S,7aS,8aR,8bR,8cR,10aR)-2-Hydroxy-2,6a-dimethyloctadecahydrocyclopropa[4,5]cyclopenta[1,2-a]phenanthren-7-yl)-2-(2H-tetrazol-2-yl)ethan-1-one], for which, in data set [1], the pIC50 was 7.67. Further, in data set [2] (brain tissue), the AUC(0-t) turned out to be 677 ng·h/mL, the AUC(0-inf) was found to be 680 ng·h/mL, the half-life is 0.5 h and the MRT was determined as 0.9 h. Further, in data set [2] (brain tissue), the Tmax came out at 0.5 h and the Cmax amounted to 605 ng/mL. Besides, in data set [2] (plasma), the AUC(0-t) was determined as 775 ng·h/mL, the AUC(0-inf) came to 778 ng·h/mL, the half-life was 0.9 h and the mean residence time (MRT) was 1.1 h. Further, in data set [2] (plasma), the Tmax is 0.5 h and the Cmax turned out to be 664 ng/mL.

Turning to `C[C@@H]1C[C@H](C(=O)Cn2cc(C#N)c(Cl)n2)[C@@]2(C)CC[C@H]3[C@@H](CC[C@@H]4C[C@](C)(O)CC[C@@H]43)[C@H]12` [Example 134, 3-Chloro-1-(2-((3R,5R,8R,9R,10S,13S,14S,15R,17S)-3-hydroxy-3,13,15-trimethylhexadecahydro-1H-cyclopenta[a]phenanthren-17-yl)-2-oxoethyl)-1H-pyrazole-4-carbonitrile], the pIC50 in data set [1] was 8.17. In data set [2] (brain tissue), the AUC(0-t) came to 3210 ng·h/mL, the AUC(0-inf) was 3500 ng·h/mL, the half-life is 1.59 h and the MRT was 3.22 h. Further, in data set [2] (brain tissue), the Tmax was 1 h and the Cmax was found to be 892 ng/mL. In data set [2] (plasma), the AUC(0-t) was 4630 ng·h/mL, the AUC(0-inf) turned out to be 5130 ng·h/mL, the half-life was 1.78 h and the mean residence time (MRT) worked out at 3.31 h. In data set [2] (plasma), the Tmax came to 0.5 h and the Cmax turned out to be 1750 ng/mL.

Take `C[C@@H]1C[C@H](C(=O)Cn2ncnn2)[C@@]2(C)CC[C@H]3[C@@H](CC[C@@H]4C[C@](C)(O)CC[C@@H]43)[C@H]12` [Example 63, 1-((3R,5R,8R,9R,10S,13S,14S,15R,17S)-3-Hydroxy-3,13,15-trimethylhexadecahydro-1H-cyclopenta[a]phenanthren-17-yl)-2-(2H-tetrazol-2-yl)ethan-1-one]: in data set [1], the negative-log IC50 (pIC50) was 8.21. In addition, in data set [2] (brain tissue), the AUC(0-t) was determined as 603 ng·h/mL, the AUC(0-inf) turned out to be 618 ng·h/mL, the half-life was 0.72 h and the MRT is 1.21 h. Also, in data set [2] (brain tissue), the Tmax is 0.5 h and the Cmax is 486 ng/mL. In addition, in data set [2] (plasma), the AUC(0-t) worked out at 599 ng·h/mL, the AUC(0-inf) was found to be 604 ng·h/mL, the half-life was 2.58 h and the MRT worked out at 2.42 h. For the same molecule, in data set [2] (plasma), the Tmax was found to be 0.5 h and the Cmax was determined as 335 ng/mL.

`CC[C@@H]1C[C@H](C(=O)Cn2nccn2)[C@@]2(C)CC[C@H]3[C@@H](CC[C@@H]4C[C@](C)(O)CC[C@@H]43)[C@H]12` [Example 141, 1-((3R,5R,8R,9R,10S,13S,14S,15R,17S)-15-Ethyl-3-hydroxy-3,13-dimethylhexadecahydro-1H-cyclopenta[a]phenanthren-17-yl)-2-(2H-1,2,3-triazol-2-yl)ethan-1-one]: the negative-log IC50 (pIC50) in data set [1] was 7.62. Besides, in data set [2] (brain tissue), the AUC(0-t) was 2150 ng·h/mL, the AUC(0-inf) was found to be 2250 ng·h/mL, the half-life was 1.68 h and the MRT was determined as 2.68 h. Further, in data set [2] (brain tissue), the Tmax turned out to be 0.5 h and the Cmax was 1050 ng/mL. Moreover, in data set [2] (plasma), the AUC(0-t) amounted to 3550 ng·h/mL, the AUC(0-inf) was determined as 3630 ng·h/mL, the half-life is 1.35 h and the MRT was 2.55 h. Besides, in data set [2] (plasma), the Tmax was determined as 0.5 h and the Cmax stood at 1630 ng/mL.

In the case of `C[C@@H]1C[C@H](C(=O)Cn2nc(C#N)cc2C#N)[C@@]2(C)CC[C@H]3[C@@H](CC[C@@H]4C[C@](C)(O)CC[C@@H]43)[C@H]12` [Example 135, 1-(2-((3R,5R,8R,9R,10S,13S,14S,15R,17S)-3-Hydroxy-3,13,15-trimethylhexadecahydro-1H-cyclopenta[a]phenanthren-17-yl)-2-oxoethyl)-1H-pyrazole-3,5-dicarbonitrile], the pIC50 in data set [1] was 8.37. Also, in data set [2] (brain tissue), the AUC(0-t) was found to be 3740 ng·h/mL, the AUC(0-inf) turned out to be 4450 ng·h/mL, the half-life is 2.82 h and the mean residence time (MRT) came out at 4.71 h. Besides, in data set [2] (brain tissue), the Tmax was 2 h and the Cmax amounted to 724 ng/mL. Also, in data set [2] (plasma), the AUC(0-t) was 4100 ng·h/mL, the AUC(0-inf) is 4110 ng·h/mL, the half-life is 2.06 h and the mean residence time (MRT) worked out at 4.38 h. Besides, in data set [2] (plasma), the Tmax worked out at 2 h and the Cmax was found to be 640 ng/mL.
